Experimental data as given in patent US4289776A, “Xanthine derivatives” (Hoechst Aktiengesellschaft, priority 1973, dated 1981).

Assays:
[1] = test system: cerebral blood circulation; assay: Cerebral blood circulation after intraduodenal administration to narcotized cats; format: in vivo, cat
mouse [2] = assay: Toxicity in the mouse (LD50); conditions: in vivo, ip
Protocol: (§1) The toxicity was determined as LD50 --range or as LD50 according to Litchfield and Wilcoxon ("J. Pharmacol. exp. Ther." 97 (1949), page 399) in the mouse.

[3] = Toxicity in the mouse (LD50); conditions: in vivo, ip, mice, intraperitoneally, read-out: LD50 -value for mice
Protocol: as §1

[4] = test system: bronchospasm against acetylcholine; assay: Broncholytic effect at the narcotized guinea-pig, bronchospasm by acetylcholine; format: in vivo; conditions: Cavia porcellus, iv, 2 min, 2 min. i.p.
Protocol: (§2) 2. Broncholytic effect at the narcotized guinea-pig
(§3) This test was performed according to H. Konsett and R. Rossler ("Archiv exp. Path. Pharmak." vol. 195 (1940), page 71).

human blood = assay: Fibrinolytic effect in vitro, Hanging-Clot-test; format: biochemical; conditions: human blood
Protocol: This effect was measured by the Hanging-Clot-test according to K. N. von Kaulla ("Journ. med. Chem." vol. 8 (1965), page 164) in using human blood. The incubation time was 24 or 48 hours.

isolated trancheal chain = assay: Broncholytic effect at the isolated tracheal chain (isoprenaline reaction)
Protocol: 3. Broncholytic effect at the isolated trancheal chain
This test was performed according to J. C. Castillo and E. J. de Beer ("J. Pharm. Ther." vol. 90 (1947), page 104).

[5] = test system: bronchospasm against histamine; assay: Broncholytic effect at the narcotized guinea-pig, bronchospasm by histamine; format: in vivo; conditions: Cavia porcellus, iv, 2 min, 2 min. i.p.
Protocol: as §2, §3

blood vascular system = conditions: known compounds; cited from earlier work
mouse [6] = conditions: known compounds; cited from earlier work
cerebral blood perfusion = assay: Cerebral blood perfusion by fluvography at the cat (i.v.); format: in vivo
Protocol: (§4) Animal tests were carried out with various oxoalkylxanthine derivatives, in which the toxicity in the mouse, the increase of cerebral and muscular blood perfusion at the cat and the fibrinolytic effect in vitro in the Hanging-Clot-test were measured. Furthermore the broncholytic effect of various compounds was tested.
(§5) 1. Cerebral and muscular blood perfusion by fluvography
(§6) These tests were performed at the cat according to K. Popendiker, I. Boksay and V. Bollmann ("Arzneimittel Forschung" vol. 21 (1971), page 1160).
(§7) The values obtained in the mentioned test 1 are given as Δλ and as half-life values in Table 2 and the results of tests 2 to 5 are enumerated in Table 3. In Table 2 Δλ is the change of blood perfusion.

muscular blood perfusion = assay: Muscular blood perfusion by fluvography at the cat (i.v.); format: in vivo
Protocol: as §4, §5, §6, §7

CC(=O)CCCCn1cnc2c1c(=O)[nH]c(=O)n2C [Example 11, 3-methyl-7-(5-oxohexyl)-xanthine]
Increase in cerebral blood circulation compared with ethylene-diamine-theophylline [1]: by several times superior
Increase in the cerebral blood circulation [1]: significant and permanent increase in the cerebral blood circulation
Compatibility compared with ethylene-diamine-theophylline (mouse [2]): much more compatible
LD50 [3]: 1000 to 1500 mg/kg

CC(=O)CCCCn1c(=O)c2c(ncn2C)n(C)c1=O [Sample 8, 1-(5-Oxohexyl)-3,7-dimethylxanthine, reference compound]
change in vivo at 3 mg/kg ([4]; 3 mg/kg i.v.): -15%
change in vivo at 10 mg/kg ([4]; 10 mg/kg i.v.): -41%
change in vivo at 20 mg/kg ([4]; 20 mg/kg i.v.): -72%
Minimum concentration for partial lysis (human blood; 24 hours incubation): 100 mmol
Minimum concentration for partial lysis (human blood; 48 hours incubation (bracket)): 50 mmol
Inhibition of isoprenaline reaction in % (isolated trancheal chain; concentration 3 × 10^-5): 30%
Inhibition of isoprenaline reaction in % (isolated trancheal chain; concentration 3 × 10^-6): 0%
Inhibition of isoprenaline reaction in % (isolated trancheal chain; concentration 10^-4): 89%
Inhibition of isoprenaline reaction in % (isolated trancheal chain; concentration 10^-5): 5%
change in vivo at 3 mg/kg ([5]; 3 mg/kg i.v.): -4%
change in vivo at 5 mg/kg ([5]; 5 mg/kg i.v.): -94%
change in vivo at 10 mg/kg ([5]; 10 mg/kg i.v.): -83%
change in vivo at 20 mg/kg ([5]; 20 mg/kg i.v.): -100%
Vascular dilatory action (blood vascular system): vaso-dilatory effect
Toxicity (mouse [6]): low toxicity
Cerebral blood perfusion half-life (cerebral blood perfusion; 1 mg/kg i.v.): 0.9 min
Cerebral blood perfusion Δλ (change of blood perfusion) (cerebral blood perfusion; 1 mg/kg i.v.): +0.44
Cerebral blood perfusion half-life (cerebral blood perfusion; 5 mg/kg i.v.): 2.4 min
Cerebral blood perfusion Δλ (change of blood perfusion) (cerebral blood perfusion; 5 mg/kg i.v.): +0.86
Cerebral blood perfusion half-life (cerebral blood perfusion; 10 mg/kg i.v.): 8.6 min
Cerebral blood perfusion Δλ (change of blood perfusion) (cerebral blood perfusion; 10 mg/kg i.v.): +1.15
Muscular blood perfusion half-life (muscular blood perfusion; 1 mg/kg i.v.): 1.10 min
Muscular blood perfusion Δλ (change of blood perfusion) (muscular blood perfusion; 1 mg/kg i.v.): +0.02
Muscular blood perfusion half-life (muscular blood perfusion; 5 mg/kg i.v.): 3.30 min
Muscular blood perfusion Δλ (change of blood perfusion) (muscular blood perfusion; 5 mg/kg i.v.): +0.03
Muscular blood perfusion half-life (muscular blood perfusion; 10 mg/kg i.v.): 2.80 min
Muscular blood perfusion Δλ (change of blood perfusion) (muscular blood perfusion; 10 mg/kg i.v.): +0.15
Muscular blood perfusion half-life (muscular blood perfusion; 20 mg/kg i.v.): > 15 min
Muscular blood perfusion Δλ (change of blood perfusion) (muscular blood perfusion; 20 mg/kg i.v.): +1.38
